Consider one molecule from ChEMBL document CHEMBL1949656, “Characterization of a 1,4-disubstituted 1,2,3-triazole binding to T box antiterminator RNA” (Bioorg Med Chem, 2012).

Test [1] deals with Nucleic Acid. As to the kind of experiment: Stabilization of AM1A T box antiterminator model RNA assessed as reduction in flexibility at U6-C12 bulge region of RNA after 40 hrs by autoradiography based in-line probing assay. It counts as nucleic-acid assay.
For test [2], the system named is Nucleic Acid. As to the kind of experiment: Binding affinity to AM1A T box antiterminator model RNA assessed as change in melting temperature at 100 uM by UV-thermal denaturation method. It is filed as nucleic-acid assay.
Test [3] concerns Nucleic Acid. Nature of the test: Stabilization of AM1A T box antiterminator model RNA assessed as effect on flexibility of RNA after 40 hrs by autoradiography based in-line probing assay. It is filed as nucleic-acid assay.
Test [4] concerns the target Nucleic Acid. Nature of the test: Binding affinity to AM1A T box antiterminator model RNA at 100 to 300 uM after 130 mins by FRET assay. It counts as nucleic-acid assay.
Test [5] relates to Nucleic Acid. As to the kind of experiment: Binding affinity to AM1A T box antiterminator model RNA assessed as melting temperature at 100 uM by UV-thermal denaturation method (reference value: 51 deg C).
Test [6] addresses Nucleic Acid. As to the kind of experiment: Binding affinity to C11U T box antiterminator model RNA at 100 to 300 uM after 130 mins by FRET assay. It counts as nucleic-acid assay.

Each structure is given as a SMILES string. Activity calls are given as the source filed them. The rule behind the calls is not given here.

For orientation: Kd means a measure of binding affinity in units of concentration. A word on the Tm: it is the temperature at which the thermal transition is half complete. `CN(CCCc1ccccc1)Cc1cn(CC(O)COC(=O)NCc2ccccc2)nn1` (stereo unspecified): the outcome in test [1] and in test [3] was Active. The Tm(app) in test [2] is 69 °C. Also, the Kd was found to be 56 µM in test [4] and 59 µM in test [6]. The Tm in test [5] is 52 °C.
